This is an account of results in patent US11690839B2, “Treatment of idiopathic pulmonary fibrosis” (TAKEDA GMBH, priority 2017, dated 2023).

Molecules are shown by their SMILES. Read-outs that look alike come from different tables or passages of the source.

The subject of experiment [1] is IPF mice model (DTR+ mice given diphtheria toxin). It is filed as in vivo.
Experiment [2] relates to WI-38 human lung fibroblasts. Description: TGF-β induced mRNA expression of pro-fibrotic markers in WI-38 human lung fibroblast cell line. Format: cell-based. Particulars: WI-38 cells, various concentrations of Compound A 1 hour before TGF-β (3 ng/mL) and forskolin (1 μM), 24 hours incubation, normalized to GAPDH; FIG. 2. The method, then: 2) In Vitro Effects of PDE4 Inhibitor Compound A in […]
For gene expression assay, WI-38 human lung fibroblasts were suspended in Eagle's minimum essential medium (E-MEM, Invitrogen) containing 10% heat-inactivated fetal bovine serum (FBS) and seeded on 24 well plates as 0.5×10^5 cells/500 μL/well. Twenty-four hours after the seeding, medium was re-placed by E-MEM containing 0.5% FBS. Twenty-four hours after medium change, cells were treated with various concentration of Compound A. After 1 hour, cells were treated with TGF-β (3 ng/mL) and forskolin (1 μM). After the 24-hours incubation, total RNA was ex-tracted from cell lysate using RNeasy 96 Kit (QIAGEN 74182). cDNA was amplified using High-Capacity cDNA Reverse Transcription Kit (ABI 4368813), and target gene mRNA was measured using TaqMan PCR with predesigned primers for type 1 collagen alpha 1 chain (Hs00164004_m1, Applied Biosystems), fibronectin (Hs00365052_m1, Applied Biosystems), connective tissue growth factor (Hs01026927_g1, Applied Biosystems), plasminogen activator inhibitor-1 (Hs00167155_m1, Applied Biosystems) and GAPDH (Hs02758991_g1, Applied Biosystems) as the endogenous reference. The target gene expression levels were normalized by mRNA expression of GAPDH and the data represent the relative mRNA levels to TGF-β/forskolin-treated group.

As to `Cc1ccc(NC(=O)c2ccc(CN3CCN(C)CC3)cc2)cc1Nc1nccc(-c2cccnc2)n1` [Imatinib, reference compound], the “body weight reduction by induction of epithelial cell injury” value in experiment [1] (DT day 1-14, imatinib 50 mg/kg intraperitoneal once daily day 11-21, FIG. 1B) is recorded as “not blunted”. In addition, in experiment [1] (DT day 1-14, imatinib 50 mg/kg intraperitoneal once daily day 11-21, assessed day 21, FIG. 1A), the “suppression of lung hydroxyproline content (severity of lung fibrosis)” value is “only a moderate efficacy”.
For `CCOc1cc2c(cc1OC)C(c1ccc(=O)n(C)c1)=N[C@@H]1CC[C@@H](O)C[C@H]21` [Compound A, 5-((2R,4aR,10bR)-9-Ethoxy-2-hydroxy-8-methoxy-1,2,3,4,4a,10b-hexahydro-phenanthridin-6-yl)-1-methyl-1H-pyridin-2-one], in experiment [1] (DT day 1-14, Compound A 0.3 or 3.0 mg/kg oral once daily day 11-21, FIG. 1B), the “body weight reduction by induction of epithelial cell injury” value was “blunting effect was shown”. For the same compound, the “suppression of lung hydroxyproline content (severity of lung fibrosis)” value in experiment [1] (DT day 1-14, Compound A oral gavage once daily day 11-21, already starting at 0.3 mg/kg (doses 0.3 and 3.0 mg/kg), assessed day 21, FIG. 1A) is “robust and significant effect on suppression of hydroxyproline content”. The “mRNA expression of fibrotic marker genes (type 1 collagen alpha 1, fibronectin, connective tissue growth factor, plasminogen activator inhibitor-1) induced by TGF-β” value in experiment [2] is recorded as “significantly suppressed expression of fibrotic marker genes induced by TGF-β”.
